Data as given in patent EP0195316A1, “Quinolonecarboxylic acid derivatives” (KYORIN PHARMACEUTICAL CO., LTD., priority 1985, dated 1986).
≈ marks a conversion by molar mass, not a printed value. Where two headings read alike, the source gives them in different places.

Columns and labels:
[1] = system: Escherichia coli NIHJ JC-2; test: MIC, in vitro antibacterial activity (standard strains); assay type: cell-based; settings: NIHJJC2
[2] = system: Proteus vulgaris IFO 3167; test: as above; assay type: cell-based; settings: Proteus vulgaris, IFO3167
K. pneumoniae 1-220S = test: as above; assay type: cell-based; settings: Klebsiella pneumoniae, 1220S
Shigella sonnei IID 969 = test: as above; assay type: cell-based; settings: IID969; Shigella sonnei IID 969, 10^6 cells/ml, Gram -
Experimental: (§1) Minimal inhibitory concentrations (MICs) were determined in accordance with the method recommended by Japan Society of Chemotherapy.

Pst. microns UPI 5464-1 = test: as above; assay type: cell-based; settings: Pst. microns UPI 5464-1, 10^6 cells/ml, Gram +
E. coli ML 4707 = test: In vivo antibacterial activity against systemic infections in mice; settings: Escherichia coli
Experimental: (§2) The infections were produced by intraperitoneal injection of suspension of the bacterial cells. The compounds were administered orally at an hour after the injection. Five male ICR mice were used for each dosage. […] The efficacy of the present compound are shown in Table 4 in comparison with those of the reference compounds.

P. aeruginosa IID 1210 = test: as above; settings: Pseudomonas aeruginosa
Experimental: as §2

S. aureus Smith = test: as above; settings: Staphylococcus aureus
Experimental: as §2

S. pneumoniae S-4288 = test: as above; settings: Streptococcus pneumoniae
Experimental: as §2

Bacteroides fragilis 2 = test: Experimental local infection with anaerobic bacteria in granuloma pouches in rats; assay type: in vivo; settings: pouch exudate, Mean ± S.D. (n=3)
Experimental: Under ether anesthesia, male Wistar rats (7 weeks old) were injected subcutaneously on the back with 20 ml of germ-free air (sterilized by membrane filtration, 0.45 µm pore size) by means of a syringe. Continuously, an inflammatory reaction was induced by injecting one ml of sterile croton oil solution (1 % in olive oil) into the formed air pouch. After 2 days, the air was removed. On the eighth day, 0.5 ml of Bacteroides fragilis 2 culture (10^6 CFU/ml) were injected into bore granuloma pouches. Each compound was administered orally or subcutaneously at 2 hours after infection. […] During experiment, intake of food and water was free. It was known that the activity of the existing quinolonecarboxylic acid compounds against obligate anaerobic bacteria was very weak. […] This property is also one of excellent characters of the present comound.

[3] = system: nalidixic acid-resistant Salmonella typhimurium TA98 strain (nal^r); test: Mutagenicity, reverse mutation assay; settings: 0.5 µg/plate, S9-mix +, positive control
Source text: As for antibacterial agents, assessment of mutagenicity using bacteria is somewhat difficult because of their activity on the test bacteria.

MR-S. aureus = test: MIC, in vitro antibacterial activity (clinical isolates); assay type: cell-based; settings: Staphylococcus aureus, No. of strains 46
S. epidermidis = test: as above; assay type: cell-based; settings: Staphylococcus epidermidis, No. of strains 10
S. pyogenes = test: as above; assay type: cell-based; settings: Streptococcus pyogenes
S. pneumoniae = test: as above; assay type: cell-based; settings: Streptococcus pneumoniae
E. faecalis = test: as above; assay type: cell-based; settings: Enterococcus faecalis, No. of strains 5
N. gonorrhoeae = test: as above; assay type: cell-based; settings: Neisseria gonorrhoeae, No. of strains 16
N. meningitidis = test: as above; assay type: cell-based; settings: Neisseria meningitidis, No. of strains 3
B. catarrhalis = test: as above; assay type: cell-based; settings: Moraxella catarrhalis
H. influenzae = test: as above; assay type: cell-based; settings: Haemophilus influenzae, No. of strains 26
E. coli = test: as above; assay type: cell-based; settings: Escherichia coli, No. of strains 25
Experimental: as §1

P. pneumoniae = test: as above; assay type: cell-based; settings: No. of strains 25
Experimental: as §1

S. aureus = test: as above; assay type: cell-based; settings: Staphylococcus aureus, No. of strains 21
Experimental: as §1

E. cloacae = test: as above; assay type: cell-based; settings: Enterobacter cloacae
S. marcescens = test: as above; assay type: cell-based; settings: Serratia marcescens, No. of strains 20
P. mirabilis = test: as above; assay type: cell-based; settings: Proteus mirabilis, No. of strains 10
P. vulgaris = test: as above; assay type: cell-based; settings: Proteus vulgaris, No. of strains 6
M. morganii = test: as above; assay type: cell-based; settings: Morganella morganii, No. of strains 8
C. freundii = test: as above; assay type: cell-based; settings: Citrobacter freundii, No. of strains 9
P. aeruginosa = test: as above; assay type: cell-based; settings: Pseudomonas aeruginosa
P. maltophilia = test: as above; assay type: cell-based; settings: Stenotrophomonas maltophilia, No. of strains 9
Acinetobacter sp. = test: as above; assay type: cell-based
Alcaligenes sp. = test: as above; assay type: cell-based; settings: No. of strains 9
Campylobacter jejuni = test: as above; assay type: cell-based; settings: No. of strains 20
Bacteroides sp. = test: as above; assay type: cell-based; settings: No. of strains 17
[4] = system: Streptococcus pyogenes (S-8); test: MIC, in vitro antibacterial activity (standard strains); assay type: cell-based; settings: Streptococcus pyogenes
S. pneumoniae IID 552 = test: as above; assay type: cell-based; settings: Streptococcus pneumoniae, IID552
[5] = system: Klebsiella pneumoniae KY(GN)6445; test: as above; assay type: cell-based; settings: Klebsiella pneumoniae
[6] = system: Alcaligenes faecalis 0104002; test: as above; assay type: cell-based; settings: Alcaligenes faecalis, 0104002
[7] = system: B. thetaiotaomicron (0661); test: as above; assay type: cell-based; settings: Bacteroides thetaiotaomicron
F. varium KYA 8501 = test: as above; assay type: cell-based; settings: Fusobacterium varium, KYA8501
C. perfringens KYA 13123 = test: microbe, parasite or virus in culture; assay type: cell-based; settings: Clostridium perfringens, KYA13123
[8] = ML4707, E. coli ML 4707 systemic infection (i.p.), male ICR mice, oral administration an hour after infection, read-out: ED50
[9] = IID1210, P. aeruginosa IID 1210 systemic infection (i.p.), male ICR mice, oral administration an hour after infection, read-out: ED50
[10] = S4288, S. pneumoniae S-4288 systemic infection (i.p.), male ICR mice, oral administration an hour after infection, read-out: ED50

O=C(O)c1cn(C2CC2)c2cc(N3CCNCC3)c(F)cc2c1=O [CFLX, Ciprofloxacin]
MIC ([1]; Escherichia coli NIHJ JC-2, 10^6 cells/ml, Gram -, read-out: MIC): ≤ 6 ng/mL
MIC [2]: ≤ 6 ng/mL
MIC (K. pneumoniae 1-220S): 0.05 µg/mL (≈ 0.151 µM)
MIC (Shigella sonnei IID 969): ≤ 6 ng/mL
MIC (Pst. microns UPI 5464-1): 0.2 µg/mL
ED50 (E. coli ML 4707; ML4707, po): 1.5 mg/kg
ED50 (P. aeruginosa IID 1210; IID1210, po): 4.5 mg/kg
ED50 (S. aureus Smith; po): 31 mg/kg
ED50 (S. pneumoniae S-4288; S4288, po): > 100 mg/kg

CO[C@@]1(NC(=O)Cc2cccs2)C(=O)N2C(C(=O)O)=C(COC(N)=O)CS[C@@H]21 [CFX, cefoxitin]
Viable cells count (log) / ml (Bacteroides fragilis 2; 50 mg/kg, s.c., 6 hr): 3.9 ± 0.25 (log) / ml
Viable cells count (log) / ml (Bacteroides fragilis 2; 50 mg/kg, s.c., 24 hr): 6.3 ± 0.31 (log) / ml

CCC[C@@H]1C[C@@H](C(=O)N[C@@H]([C@H]2O[C@H](SC)[C@H](O)[C@@H](O)[C@H]2O)[C@H](C)Cl)N(C)C1 [CLDM, clindamycin]
Viable cells count (log) / ml (Bacteroides fragilis 2; 25 mg/kg, s.c., 6 hr): 4.6 ± 0.058 (log) / ml
Viable cells count (log) / ml (Bacteroides fragilis 2; 25 mg/kg, s.c., 24 hr): 6.4 ± 0.38 (log) / ml

Nc1ccc2cc3ccccc3cc2c1 [Example 2AA, 2-Aminoanthracene]
His^+ revertants per plate [3]: 277

Cc1ncc([N+](=O)[O-])n1CCO [MND, metronidazole]
Viable cells count (log) / ml (Bacteroides fragilis 2; 50 mg/kg, p.o., 6 hr): 5.2 ± 0.10 (log) / ml
Viable cells count (log) / ml (Bacteroides fragilis 2; 50 mg/kg, p.o., 24 hr): 5.7 ± 0.60 (log) / ml

CCn1cc(C(=O)O)c(=O)c2cc(F)c(N3CCNCC3)cc21 [NFLX, Norfloxacin]
MIC (MR-S. aureus): 25 µg/mL (≈ 78.3 µM)
MIC (S. epidermidis): 0.78 µg/mL (≈ 2.44 µM)
MIC (S. pyogenes): 1.56 µg/mL (≈ 4.89 µM)
MIC (S. pneumoniae): 12.5 µg/mL (≈ 39.1 µM)
MIC (E. faecalis): 6.25 µg/mL (≈ 19.6 µM)
MIC (N. gonorrhoeae): 0.1 µg/mL (≈ 0.313 µM)
MIC (N. meningitidis): 0.05 µg/mL (≈ 0.157 µM)
MIC (B. catarrhalis): 1.56 µg/mL (≈ 4.89 µM)
MIC (H. influenzae): 0.2 µg/mL (≈ 0.626 µM)
MIC (E. coli): 0.1 µg/mL (≈ 0.313 µM)
MIC (P. pneumoniae): 0.78 µg/mL (≈ 2.44 µM)
MIC (S. aureus): 1.56 µg/mL (≈ 4.89 µM)
MIC (E. cloacae): 0.1 µg/mL (≈ 0.313 µM)
MIC (S. marcescens): 0.1 µg/mL (≈ 0.313 µM)
MIC (P. mirabilis): 0.1 µg/mL (≈ 0.313 µM)
MIC (P. vulgaris): 0.05 µg/mL (≈ 0.157 µM)
MIC (M. morganii): 0.05 µg/mL (≈ 0.157 µM)
MIC (C. freundii): 0.39 µg/mL (≈ 1.22 µM)
MIC (P. aeruginosa): 1.56 µg/mL (≈ 4.89 µM)
MIC (P. maltophilia): 25 µg/mL (≈ 78.3 µM)
MIC (Acinetobacter sp.; Acinetobacter): 12.5 µg/mL (≈ 39.1 µM)
MIC (Alcaligenes sp.): 100 µg/mL (≈ 313 µM)
MIC (Campylobacter jejuni): 0.78 µg/mL (≈ 2.44 µM)
MIC (Bacteroides sp.): 50 µg/mL (≈ 157 µM)
ED50 (E. coli ML 4707; [8]): 8.9 mg/kg
ED50 (P. aeruginosa IID 1210; [9]): 18.9 mg/kg
ED50 (S. pneumoniae S-4288; [10]): > 100 mg/kg

CC1COc2c(N3CCN(C)CC3)c(F)cc3c(=O)c(C(=O)O)cn1c23 (stereo not drawn) [OFLX, Ofloxacin]
MIC (MR-S. aureus): 1.56 µg/mL (≈ 4.32 µM)
MIC (S. epidermidis): 0.39 µg/mL (≈ 1.08 µM)
MIC (S. pyogenes; clinical isolates S. pyogenes, No. of strains 6, read-out: MIC): 1.56 µg/mL (≈ 4.32 µM)
MIC (S. pneumoniae; clinical isolates S. pneumoniae, No. of strains 6, read-out: MIC): 3.13 µg/mL (≈ 8.66 µM)
MIC (E. faecalis): 3.13 µg/mL (≈ 8.66 µM)
MIC (N. gonorrhoeae): 0.05 µg/mL (≈ 0.138 µM)
MIC (N. meningitidis): 0.025 µg/mL (≈ 0.0692 µM)
MIC (B. catarrhalis; clinical isolates B. catarrhalis, No. of strains 21, read-out: MIC): 0.2 µg/mL (≈ 0.553 µM)
MIC (H. influenzae): 0.1 µg/mL (≈ 0.277 µM)
MIC (E. coli): 0.1 µg/mL (≈ 0.277 µM)
MIC (P. pneumoniae): 0.78 µg/mL (≈ 2.16 µM)
MIC (S. aureus): 0.39 µg/mL (≈ 1.08 µM)
MIC (E. cloacae): 0.1 µg/mL (≈ 0.277 µM)
MIC (S. marcescens): 0.2 µg/mL (≈ 0.553 µM)
MIC (P. mirabilis): 0.2 µg/mL (≈ 0.553 µM)
MIC (P. vulgaris): 0.1 µg/mL (≈ 0.277 µM)
MIC (M. morganii): 0.1 µg/mL (≈ 0.277 µM)
MIC (C. freundii): 0.39 µg/mL (≈ 1.08 µM)
MIC (P. aeruginosa; clinical isolates P. aeruginosa, No. of strains 27, read-out: MIC): 3.13 µg/mL (≈ 8.66 µM)
MIC (P. maltophilia): 6.25 µg/mL (≈ 17.3 µM)
MIC (Acinetobacter sp.; clinical isolates Acinetobacter sp., No. of strains 13, read-out: MIC): 3.13 µg/mL (≈ 8.66 µM)
MIC (Alcaligenes sp.): 6.25 µg/mL (≈ 17.3 µM)
MIC (Campylobacter jejuni): 0.39 µg/mL (≈ 1.08 µM)
MIC (Bacteroides sp.): 3.13 µg/mL (≈ 8.66 µM)
ED50 (E. coli ML 4707; [8]): 2.1 mg/kg
ED50 (P. aeruginosa IID 1210; [9]): 12.1 mg/kg
ED50 (S. aureus Smith; S. aureus Smith systemic infection (i.p.), male ICR mice, oral administration an hour after infection, read-out: ED50): 17 mg/kg
ED50 (S. pneumoniae S-4288; [10]): > 100 mg/kg

O=C(O)c1cn(C2CC2)c2c(F)c(N3CCNCC3)c(F)cc2c1=O [Ref.1, 1-Cyclopropyl-6,8-difluoro-1,4-dihydro-4-oxo-7-(1-piperazinyl)-3-quinoline-carboxylic acid]
MIC [4]: 0.39 µg/mL (≈ 1.12 µM)
MIC (S. pneumoniae IID 552): 0.78 µg/mL (≈ 2.23 µM)
MIC ([1]; Escherichia coli): ≤ 6 ng/mL
MIC [5]: 0.0125 µg/mL (≈ 0.0358 µM)
MIC (K. pneumoniae 1-220S): 0.05 µg/mL (≈ 0.143 µM)
MIC (Shigella sonnei IID 969): ≤ 6 ng/mL
MIC [6]: 0.025 µg/mL (≈ 0.0716 µM)
MIC [7]: 3.13 µg/mL (≈ 8.96 µM)
MIC (F. varium KYA 8501): 3.13 µg/mL (≈ 8.96 µM)
MIC (C. perfringens KYA 13123): 0.39 µg/mL (≈ 1.12 µM)
